According to US7592366B2, “Therapeutic compounds” (Allergan, Inc., priority 2006, dated 2009):

What was measured:
EP2 [1] = biological target: T1, EP2 (Homo sapiens, UniProt P43116); assay: cAMP assay, EP2; type: cell-based; parameters: expressed in transfected cells; host or cells: HEK-EBNA; settings: HEK-EBNA cells expressing EP2
Description: A 384-well drug plate was prepared to contain 6 test compounds, PGE2 and cAMP in 16 serial dilutions in triplicate, using a Biomek station. HEK-EBNA cells expressing a target PG receptor subtype (EP2 or EP4) were suspended in a stimulation buffer (HBSS, 0.1% BSA, 0.5 mM IBMX and 5 mM HEPES, pH 7.4) in a density of 10^4 cells/5 μl. The reaction was initiated by mixing 5 μL drug dilutions with 5 μl of HEK-EBNA cells in a well, carried out for 30 min at room temperature, and followed by the addition of 5 μl anti-cAMP acceptor beads in the control buffer with Tween-20 (25 mM NaCl, 0.03% Tween-20, 5 mM HEPES, pH7.4). After 30 min in the dark at room temperature, the mixtures were incubated with 15 μl biotinylated-cAMP/strepavidin donor beads in Lysis/Detection buffer (0.1% BSA, 0.3% Tween-20 and 5 mM HEPES, pH7.4) for 45 min at the room temperature. Fluorescence changes were read using a Fusion-alpha HT microplate reader.

EP4 receptors = biological target: T2, EP4 receptors (Homo sapiens, UniProt P35408); assay: Radioligand binding [3H]PGE2, EP4 Ki; settings: [3H]PGE2 competition, HEK-293 cells expressing EP4
T2 construct: expressed in transfected cells; host or cells: HEK-293
T2 sequence (P35408 whole entry): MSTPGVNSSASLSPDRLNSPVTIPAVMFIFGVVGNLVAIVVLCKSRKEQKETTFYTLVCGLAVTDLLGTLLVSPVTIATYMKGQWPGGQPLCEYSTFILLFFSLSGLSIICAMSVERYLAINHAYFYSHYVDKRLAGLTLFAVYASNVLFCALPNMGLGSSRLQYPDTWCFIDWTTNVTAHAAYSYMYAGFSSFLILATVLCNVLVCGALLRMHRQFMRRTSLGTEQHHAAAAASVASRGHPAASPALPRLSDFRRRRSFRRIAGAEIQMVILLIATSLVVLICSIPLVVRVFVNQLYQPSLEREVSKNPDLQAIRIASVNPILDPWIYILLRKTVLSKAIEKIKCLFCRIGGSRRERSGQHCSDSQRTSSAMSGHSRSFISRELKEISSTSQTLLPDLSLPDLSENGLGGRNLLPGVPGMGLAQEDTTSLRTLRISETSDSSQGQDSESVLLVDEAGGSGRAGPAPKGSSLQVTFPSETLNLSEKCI
Description: (§1) HEK-293 cells stably expressing the human or feline FP receptor, or EP1, EP2, or EP4 receptors were washed with TME buffer, scraped from the bottom of the flasks, and homogenized for 30 sec using a Brinkman PT 10/35 polytron. TME buffer was added to achieve a final 40 ml volume in the centrifuge tubes (the composition of TME is 100 mM TRIS base, 20 mM MgCl2, […]; 10N HCl is added to achieve a pH of 7.4).
(§2) The cell homogenate was centrifuged at 19000 r.p.m. for 20 min at 4° C. using a Beckman Ti-60 rotor. The resultant pellet was resuspended in TME buffer to give a final 1 mg/ml protein concentration, as determined by Biorad assay. Radioligand binding competition assays vs. [^3H-]17-phenyl PGF2α (5 nM) were performed in a 100 μl volume for 60 min. Binding reactions were started by adding plasma membrane fraction. The reaction was terminated by the addition of 4 ml ice-cold TRIS-HCl buffer and rapid filtration through glass fiber GF/B filters using a Brandel cell harvester. The filters were washed 3 times with ice-cold buffer and oven dried for one hour.
(§3) [^3H-] PGE2 (specific activity 180 Ci mmol) was used as the radioligand for EP receptors. [^3H] 17-phenyl PGF2α was employed for FP receptor binding studies. Binding studies employing EP1, EP2, EP4 and FP receptors were performed in duplicate in at least three separate experiments. A 200 μl assay volume was used. Incubations were for 60 min at 25° C. and were terminated by the addition of 4 ml of ice-cold 50 mM TRIS-HCl, followed by rapid filtration through Whatman GF/B filters and three additional 4 ml washes in a cell harvester (Brandel). Competition studies were performed using a final concentration of 5 nM [^3H]-PGE2, or 5 nM [^3H] 17-phenyl PGF2α and non-specific binding determined with 10^−5M of unlabeled PGE2, or 17-phenyl PGF2α, according to receptor subtype studied.

hEP2/Gqs5 = biological target: T3, hEP2/Gqs5 (Homo sapiens, UniProt P43116); assay: FLIPR calcium signal, EP2; type: cell-based; settings: HEK-293(EBNA) cells
T3 construct: expressed in transfected cells; host or cells: HEK-293(EBNA)
T3 sequence (P43116 whole entry): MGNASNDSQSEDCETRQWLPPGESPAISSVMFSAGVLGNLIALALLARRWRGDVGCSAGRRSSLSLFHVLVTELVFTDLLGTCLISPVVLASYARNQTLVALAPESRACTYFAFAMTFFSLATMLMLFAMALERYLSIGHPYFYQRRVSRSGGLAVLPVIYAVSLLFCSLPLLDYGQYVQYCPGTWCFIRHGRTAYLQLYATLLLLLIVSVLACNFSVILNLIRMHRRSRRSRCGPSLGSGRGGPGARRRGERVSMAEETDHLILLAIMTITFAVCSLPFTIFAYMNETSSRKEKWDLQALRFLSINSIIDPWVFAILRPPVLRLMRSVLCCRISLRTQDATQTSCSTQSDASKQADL
Description: (§4) HEK-293(EBNA) cells, stably expressing one type or subtype of recombinant human prostaglandin receptors (prostaglandin receptors expressed: hDP/Gqs5; hEP1; hEP2/Gqs5; hEP3A/Gqi5; hEP4/Gqs5; hFP; hIP; hTP), were cultured in 100 mm culture dishes in high-glucose DMEM medium containing 10% fetal bovine serum, 2 mM l-glutamine, 250 μg/ml geneticin (G418) and 200 μg/ml hygromycin B as selection markers, and 100 units/ml penicillin G, 100 μg/ml streptomycin and 0.25 μg/ml amphotericin B.
(§5) Cells were seeded at a density of 5×10^4 cells per well in Biocoat® Poly-D-lysine-coated black-wall, clear-bottom 96-well plates (Becton-Dickinson) and allowed to attach overnight in an incubator at 37° C. Cells were then washed two times with HBSS-HEPES buffer (Hanks Balanced Salt Solution without bicarbonate and phenol red, 20 mM HEPES, pH 7.4) using a Denley Cellwash plate washer (Labsystems). After 45 minutes of dye-loading in the dark, using the calcium-sensitive dye Fluo-4 […] at a final concentration of 2 μM, plates were washed four times with HBSS-HEPES buffer to remove excess dye leaving 100 μl in each well. Plates were re-equilibrated to 37° C. for a few minutes.
(§6) Cells were excited with an Argon laser at 488 nm, and emission was measured through a 510-570 nm bandwidth emission filter (FLIPR™, Molecular Devices, Sunnyvale, Calif.). Drug solution was added in a 50 μl volume to each well to give the desired final concentration. The peak increase in fluorescence intensity was recorded for each well. On each plate, four wells each served as negative (HBSS-HEPES buffer) and positive controls (standard agonists: BW245C (hDP); PGE2 (hEP1; hEP2/Gqs5; hEP3A/Gqi5; hEP4/Gqs5); PGF2α (hFP); carbacyclin (hIP); U-46619 (hTP), depending on receptor). The peak fluorescence change in each drug-containing well was then expressed relative to the controls.
(§7) Compounds were tested in a high-throughput (HTS) or concentration-response (CoRe) format. In the HTS format, forty-four compounds per plate were examined in duplicates at a concentration of 10^−5 M. To generate concentration-response curves, four compounds per plate were tested in duplicates in a concentration range between 10^−5 and 10^−11 M. The duplicate values were averaged. In either, HTS or CoRe format each compound was tested on at least 3 separate plates using cells from different passages to give an n≧3.

hDP/Gqs5 = biological target: T4, hDP/Gqs5 (Homo sapiens, UniProt Q13258); assay: FLIPR calcium signal, hDP; type: cell-based; settings: read-out: Other Receptors (EC50 in nM) hDP
T4 construct: expressed in transfected cells; host or cells: HEK-293(EBNA)
T4 sequence (Q13258 1-359): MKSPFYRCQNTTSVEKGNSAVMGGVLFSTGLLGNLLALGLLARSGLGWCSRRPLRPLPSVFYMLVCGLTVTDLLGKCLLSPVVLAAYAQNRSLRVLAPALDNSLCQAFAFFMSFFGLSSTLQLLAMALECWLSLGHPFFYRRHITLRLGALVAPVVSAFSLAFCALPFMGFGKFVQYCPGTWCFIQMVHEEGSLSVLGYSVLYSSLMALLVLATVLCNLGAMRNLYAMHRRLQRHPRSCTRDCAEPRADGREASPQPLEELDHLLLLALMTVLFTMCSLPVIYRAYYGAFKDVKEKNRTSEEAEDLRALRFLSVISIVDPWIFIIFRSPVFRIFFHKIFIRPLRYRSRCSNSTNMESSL
Description: as §4, §5, §6, §7

hEP4/Gqs5 = biological target: T5, hEP4/Gqs5 (Homo sapiens, UniProt P35408); assay: FLIPR calcium signal, EP4; type: cell-based; settings: HEK-293(EBNA) cells
T5 construct: expressed in transfected cells; host or cells: HEK-293(EBNA)
T5 sequence (P35408 whole entry): as the sequence (P35408 whole entry) above
Description: as §4, §5, §6, §7

EP2 [2] = biological target: T1, EP2; assay: Competition binding [3H]PGE2, EP2 Ki; parameters: expressed in transfected cells; host or cells: HEK 293; settings: [3H]PGE2 competition, HEK 293 cells expressing human EP2
Description: Competition binding experiments were performed in a medium containing Hank's balanced salt solution, Hepes 20 mM, pH 7.3, membranes (˜60 μg protein) or 2×10^5 cells from HEK 293 cells stably expressing human EP2 receptors, [^3H]PGE2 (10 nM) and various concentrations of test compounds in a total volume of 300 μl. Reaction mixtures were incubated at 23° C. for 60 min, and were filtered over Whatman GF/B filters under vacuum. Filters were washed three times with 5 ml ice-cold buffer containing 50 mM Tris/HCl (pH 7.3). Non-specific binding was estimated in the presence of excess unlabeled PGE2 (10 μM). Binding data fitted to the binding model for a single class of binding sites, using nonlinear regression analysis. IC50 values thus obtained were converted to Ki using the equation of Ki=(IC50/(1+[L]/KD) where [L] represents PGE2 concentration (10 nM) and KD the dissociation constant for [^3H]PGE2 at human EP2 receptors (40 nM).
as §1, §2, §3

normotensive dogs = assay: Intraocular pressure and ocular surface hyperemia in normotensive dogs; type: in vivo, dog; parameters: scale not given here
Text: U.S. Pat. No. 7,091,231 describes the methods used for these in vivo tests.

hTP = biological target: T6, hTP (Homo sapiens, UniProt P21731); assay: FLIPR calcium signal, hTP; type: cell-based; settings: read-out: Other Receptors (EC50 in nM) hTP
T6 construct: expressed in transfected cells; host or cells: HEK-293(EBNA)
T6 sequence (P21731 1-343): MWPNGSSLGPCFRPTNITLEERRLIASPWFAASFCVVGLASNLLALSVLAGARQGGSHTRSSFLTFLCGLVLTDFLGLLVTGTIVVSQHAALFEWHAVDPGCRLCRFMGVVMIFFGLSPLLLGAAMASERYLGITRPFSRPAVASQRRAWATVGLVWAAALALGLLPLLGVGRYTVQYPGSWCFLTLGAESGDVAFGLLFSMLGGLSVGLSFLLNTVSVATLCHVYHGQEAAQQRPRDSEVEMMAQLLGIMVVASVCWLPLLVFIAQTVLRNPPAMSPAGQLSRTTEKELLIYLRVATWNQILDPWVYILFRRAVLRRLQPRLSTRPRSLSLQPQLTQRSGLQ
Description: as §4, §5, §6
Compounds were tested in a high-throughput (HTS) or concentration-response (CoRe) format. […]

T1 sequence (P43116 whole entry): as the sequence (P43116 whole entry) above

| EC50 (EP2 [1]) [nM] | Ki (EP4 receptors) [nM] | EC50 (hEP2/Gqs5) [nM] | EC50 (hDP/Gqs5) [nM] | EC50 (hEP4/Gqs5) [nM] | Ki (EP2 [2]) [nM] | maximum ocular surface hyperemia (OSH) score (normotensive dogs; 0.001%, once daily for 4 days, at 74 h) | EC50 (hTP) [nM] | maximum ocular surface hyperemia (OSH) score (normotensive dogs; 0.0001%, once daily for 5 days, at 74 h) | maximum ocular surface hyperemia (OSH) score (normotensive dogs; 0.0005%, once daily for 5 days, at 50 h) | maximum ocular surface hyperemia (OSH) score (normotensive dogs; 0.001%, once daily for 5 days, at 50 h) | maximum ocular surface hyperemia (OSH) score (normotensive dogs; 0.01%, once daily for 5 days, at 26 h) | SMILES |
| --- | --- | --- | --- | --- | --- | --- | --- | --- | --- | --- | --- | --- |
| 0.4 | 966 | 287 | 15300 | > 10000 | 3 |  |  |  |  |  |  | Cc1cc(C)cc(CC[C@@H]2[C@@H](CCCc3ccc(C(=O)O)s3)[C@H](Cl)C[C@H]2O)c1 [11e, 5-(3-((1R,2R,3R,5R)-5-chloro-2-(3,5-dimethylphenethyl)-3-hydroxycyclopentyl)propyl)thiophene-2-carboxylic acid] |
| 0.05 | 582 | 13 |  | > 10000 | 1 | 1.9 |  |  |  |  |  | O=C(O)c1ccc(CCC[C@@H]2[C@@H](CCc3cc(Cl)nc(Cl)c3)[C@H](O)C[C@H]2Cl)s1 [11b, 5-(3-((1R,2R,3R,5R)-5-chloro-2-(2-(2,6-dichloropyridin-4-yl)ethyl)-3-hydroxycyclopentyl)propyl)-thiophene-2-carboxylic acid] |
| 284 | > 10000 | 10200 |  |  | 502 |  |  |  |  |  |  | OCc1ccc(CCC[C@@H]2[C@@H](CCc3cc(Cl)cc(Cl)c3)[C@H](O)C[C@H]2Cl)s1 [compound 13, (1R,2R,3R,4R)-4-chloro-2-(3,5-dichlorophenethyl)-3-(3-(5-(hydroxymethyl)thiophen-2-yl)propyl)cyclopentanol] |
| 0.09 | 616 | 18 |  | > 10000 | 0.2 |  | > 10000 | 0.8 | 1.75 | 1.8 | 2.5 | O=C(O)c1ccc(CCC[C@@H]2[C@@H](CCc3cc(Cl)cc(Cl)c3)[C@H](O)C[C@H]2Cl)s1 [11a, 5-(3-((1R,2R,3R,5R)-5-chloro-2-(3,5-dichlorophenethyl)-3-hydroxycyclopentyl)propyl)thiophene-2-carboxylic acid] |
